Converted amounts (≈) assume the structure as drawn. Like-named read-outs stand apart in the source and are kept apart here.
Tests used:
P. aeruginosa 659 = assay: MIC, broth microdilution, clinical strain; format: cell-based, Pseudomonas aeruginosa; settings: Pseudomonas aeruginosa, 659, read-out: MIC P. aeruginosa 659, 19 h, 35 °C
E. coli 600 = assay: MIC, broth microdilution, clinical strain; format: cell-based, Escherichia coli; settings: Escherichia coli, 600, 19 h, 35 °C
[1] = test system: standard Gram-positive Staphylococci; assay: MIC, panel of standard Gram-positive strains; format: cell-based, Staphylococcus; settings: range over all standard Gram-positive Staphylococci
[2] = test system: S. epidermidis ATCC 35984; assay: MIC, broth microdilution, standard strain; format: cell-based, Staphylococcus epidermidis; settings: 35 °C; for MIC: Staphylococcus epidermidis, ATCC35984, 19 h
[3] = test system: SW480 (human primary colon cancer); assay: MTT cytotoxicity assay; format: cell-based; settings: mean SD
How it was run: (§1)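 Cells were seeded at 1 × 10^4/well, adhered 24 h, then treated for 72 h at 37 °C/5% CO2 against an untreated control. Viability was read as MTT reduction (0.5 mg/mL, 4 h; formazan in DMSO/isopropanol, 570 nm) relative to control, three repeats, with IC50 estimated from the data.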

[4] = test system: HCT116 (human colon cancer); assay: MTT cytotoxicity assay; format: cell-based; settings: mean SD
How it was run: as §1

[5] = test system: HepG2 (human liver cancer); assay: MTT cytotoxicity assay; format: cell-based; settings: mean SD
How it was run: as §1

[6] = test system: HaCaT (human immortal keratinocyte cell line); assay: MTT cytotoxicity assay; format: cell-based; settings: 72 h, mean SD, read-out: IC50 HaCaT (normal cells)
How it was run: as §1

S. epidermidis KR 4243 = assay: MIC, broth microdilution, clinical strain; format: cell-based, Staphylococcus epidermidis; settings: Staphylococcus epidermidis, KR4243, 19 h, 35 °C
S. aureus NCTC 4163 = assay: MIC, broth microdilution, standard strain; format: cell-based, Staphylococcus aureus; settings: 35 °C; for MIC: Staphylococcus aureus, NCTC4163, 19 h
E. coli ATCC 25922 = assay: MIC, broth microdilution, standard strain; format: cell-based, Escherichia coli; settings: 35 °C; for MIC E. coli ATCC 25922: 19 h; for MIC: Escherichia coli, ATCC25922, 19 h
P. aeruginosa ATCC 15442 = assay: MIC, broth microdilution, standard strain; format: cell-based, Pseudomonas aeruginosa; settings: 35 °C; for MIC: Pseudomonas aeruginosa, ATCC15442, 19 h
S. pasteuri KR 4358 = assay: MIC, broth microdilution, clinical strain; format: cell-based, Staphylococcus pasteuri; settings: Staphylococcus pasteuri, KR4358, 19 h, 35 °C
[7] = test system: S. epidermidis ATCC 12228; assay: MIC, broth microdilution, standard strain; format: cell-based, Staphylococcus epidermidis; settings: 35 °C; for MIC: Staphylococcus epidermidis, ATCC12228, 19 h
S. aureus T 5591 = assay: MIC, broth microdilution, clinical strain; format: cell-based, Staphylococcus aureus; settings: Staphylococcus aureus, T5591, 19 h, 35 °C
S. aureus ATCC 25923 = assay: MIC, broth microdilution, standard strain; format: cell-based, Staphylococcus aureus; settings: 35 °C; for MIC: Staphylococcus aureus, ATCC25923, 19 h
S. aureus T 5595 = assay: MIC, broth microdilution, clinical strain; format: cell-based, Staphylococcus aureus; settings: Staphylococcus aureus, T5595, 19 h, 35 °C
[8] = test system: SW620 (human metastatic colon cancer); assay: MTT cytotoxicity assay; format: cell-based; settings: mean SD
How it was run: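 SW620 lymph-node metastatic colon cancer cells (MEM, 10% FBS, 37 °C/5% CO2) treated with compounds; viability by MTT reduction, formazan dissolved in DMSO/isopropanol 1:1, read at 570 nm.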

S. aureus ATCC 29213 = assay: MIC, broth microdilution, standard strain; format: cell-based, Staphylococcus aureus; settings: 35 °C; for MIC: Staphylococcus aureus, ATCC29213, 19 h
S. aureus ATCC 6538 = assay: MIC, broth microdilution, standard strain; format: cell-based, Staphylococcus aureus; settings: 35 °C; for MIC: Staphylococcus aureus, ATCC6538, 19 h
E. coli 520 = assay: MIC, broth microdilution, clinical strain; format: cell-based, Escherichia coli; settings: Escherichia coli, 520, 19 h, 35 °C
E. coli 510 = assay: MIC, broth microdilution, clinical strain; format: cell-based, Escherichia coli; settings: Escherichia coli, 510, 19 h, 35 °C
[9] = test system: standard bacteria strains; assay: Antimicrobial screening (MIC), standard bacteria strains; format: cell-based; settings: MIC evaluation
Procedure: Obtained compounds were examined for antimicrobial potency. Firstly, all of them were screened for their minimal inhibitory concentrations (MICs). A suitable set of bacteria was used, including representative standard Gram-positive and Gram-negative rods (Table 2 and Table 3). For clarity, results are presented for menthol and thymol derivatives separately.
The antimicrobial assays were conducted using reference strains of bacteria derived from international microbe collections: American Type Culture Collection (ATCC) and National Collection of Type Culture (NCTC). The following standard strains of bacteria were used: Gram-positive—Staphylococcus aureus NCTC 4163, Staphylococcus aureus ATCC 25923, Staphylococcus aureus ATCC 6538, Staphylococcus aureus ATCC 29213, Staphylococcus epidermidis ATCC 12228, Staphylococcus epidermidis ATCC 35984, Gram-negative: Escherichia coli ATCC 25922, Pseudomonas aeruginosa ATCC 15442. […] Antimicrobial activity was examined by the Minimal Inhibitory Concentration (MIC) method under standard procedures provided by CLSI with some modifications. MIC was determined by the two-fold serial broth microdilution method in 96-well microtitration plates using Mueller–Hinton II broth medium (Becton Dickinson, Franklin Lakes, NJ, USA). The final inoculum of all studied bacteria was 10^6 CFU/mL (colony forming unit per millilitre). The stock solution of tested compounds was prepared in dimethyl sulfoxide (DMSO) and diluted to a maximum of 1% of solvent content with a sterile medium.

Compound | MIC (P. aeruginosa 659) | MIC (E. coli 600) | MIC [2] | IC50 ([3]; Homo sapiens, SW480, 72 h) | IC50 ([4]; Homo sapiens, HCT-116, 72 h) | IC50 ([5]; Homo sapiens, HepG2, 72 h) | IC50 ([6]; Homo sapiens, HaCaT) | MIC (S. epidermidis KR 4243) | MIC (S. aureus NCTC 4163) | MIC E. coli ATCC 25922 (E. coli ATCC 25922) | MIC (E. coli ATCC 25922) | MIC (P. aeruginosa ATCC 15442) | MIC (S. pasteuri KR 4358) | MIC [7] | MIC (S. aureus T 5591) | MIC (S. aureus ATCC 25923) | IC50 ([8]; Homo sapiens, SW-620, 72 h) | MIC (S. aureus ATCC 29213) | MIC (S. aureus ATCC 6538) | Antimicrobial activity (in words) [9] | also measured
Cc1ccc(C(C)C)c(OC(=O)CCCN2CCN(c3cc4c(cc3F)c(=O)c(C(=O)O)cn4C3CC3)CC2)c1 [Compound 12, 1-cyclopropyl-6-fluoro-7-{4-[4-(2-isopropyl-5-methylphenoxy)-4-oxobutyl]piperazin-1-yl}-4-oxo-1,4-dihydroquinoline-3-carboxylic acid] | 64 µg/mL (≈ 116 µM) | 4 µg/mL (≈ 7.28 µM) | 0.8 µg/mL (≈ 1.46 µM) | 33.7 ± 3.5 µM | 28.6 ± 0.1 µM | 43.4 ± 3.1 µM | 59.1 ± 3.1 µM | 2 µg/mL (≈ 3.64 µM) | 1.6 µg/mL (≈ 2.91 µM) | 3.2 µg/mL (≈ 5.82 µM) | 2 to 4 µg/mL (≈ 3.64 to 7.28 µM) | 12.8 µg/mL (≈ 23.3 µM) | 1 µg/mL (≈ 1.82 µM) | 0.8 µg/mL (≈ 1.46 µM) | 1 µg/mL (≈ 1.82 µM) | 0.8 µg/mL (≈ 1.46 µM) | 61.8 ± 0.1 µM | 0.8 µg/mL (≈ 1.46 µM) | 1.6 µg/mL (≈ 2.91 µM) | – | MIC range against standard Gram-positive strains [1]: 0.8 to 1.6 µg/mL; MIC (S. aureus T 5595): 4 µg/mL (≈ 7.28 µM); MIC (E. coli 520): 8 µg/mL (≈ 14.6 µM); MIC (E. coli 510): 128 µg/mL (≈ 233 µM)
2-(2-isopropyl-5-methylphenoxy)-2-oxobutyl-1-cyclopropyl-6-fluoro-7-{4-[2-(2-isopropyl-5-methylphenoxy)-2-oxobutyl]piperazin-1-yl}-4-oxo-1,4-dihydroquinoline-3-carboxylate [Compound 15] | – | – | – | – | – | – | – | – | – | 128 µg/mL | – | – | – | – | – | – | – | – | – | rather inactive | MIC S. epidermidis ATCC 35984 ([2]; 19 h): 128 µg/mL; IC50 ([3]; 72 h): 40.8 ± 4.2 µM; IC50 ([4]; 72 h): 48.2 ± 5.3 µM; IC50 ([5]; 72 h): 61.8 ± 1.5 µM; IC50 [6]: 67.1 ± 4.6 µM; MIC S. aureus NCTC 4163 (S. aureus NCTC 4163; 19 h): 64 µg/mL; MIC P. aeruginosa ATCC 15442 (P. aeruginosa ATCC 15442; 19 h): >256 µg/mL; MIC S. epidermidis ATCC 12228 ([7]; 19 h): 128 µg/mL; MIC S. aureus ATCC 25923 (S. aureus ATCC 25923; 19 h): 64 µg/mL; IC50 ([8]; 72 h): 57.4 ± 3.6 µM; MIC S. aureus ATCC 29213 (S. aureus ATCC 29213; 19 h): 256 µg/mL; MIC S. aureus ATCC 6538 (S. aureus ATCC 6538; 19 h): 128 µg/mL
CC(C)[C@@H]1CC[C@@H](C)C[C@H]1OC(=O)CCCCCN1CCN(c2cc3c(cc2F)c(=O)c(C(=O)O)cn3C2CC2)CC1 [Compound 6, 1-cyclopropyl-6-fluoro-7-{4-[6-((1R,2S,5R)-2-isopropyl-5-methylcyclohexyloxy)-6-oxohexyl]piperazin-1-yl}-4-oxo-1,4-dihydroquinoline-3-carboxylic acid] | > 256 µg/mL | 64 µg/mL (≈ 110 µM) | 8 µg/mL (≈ 13.7 µM) | 46.2 ± 1.8 µM | 29.5 ± 2.1 µM | 53.7 ± 0.9 µM | > 100 µM | 8 µg/mL (≈ 13.7 µM) | 4 µg/mL (≈ 6.85 µM) | – | 32 µg/mL (≈ 54.8 µM) | 256 µg/mL (≈ 439 µM) | 8 µg/mL (≈ 13.7 µM) | 8 µg/mL (≈ 13.7 µM) | 8 µg/mL (≈ 13.7 µM) | 8 µg/mL (≈ 13.7 µM) | 38.1 ± 2.5 µM | 8 µg/mL (≈ 13.7 µM) | 4 µg/mL (≈ 6.85 µM) | – | MIC (S. aureus T 5595): 8 µg/mL (≈ 13.7 µM); melting point: 210.8 to 212.4 °C; MIC (E. coli 520): 64 µg/mL (≈ 110 µM); MIC (E. coli 510): > 256 µg/mL
CC(C)[C@@H]1CC[C@@H](C)C[C@H]1OC(=O)CCCCCOC(=O)c1cn(C2CC2)c2cc(N3CCN(CCCCCC(=O)O[C@@H]4C[C@H](C)CC[C@H]4C(C)C)CC3)c(F)cc2c1=O [Compound 8, 6-((1R,2S,5R)-2-isopropyl-5-methylcyclohexyloxy)-6-oxohexyl-1-cyclopropyl-6-fluoro-7-{4-[6-((1R,2S,5R)-2-isopropyl-5-methylcyclohexyloxy)-6-oxohexyl]piperazin-1-yl}-4-oxo-1,4-dihydroquinoline-3-carboxylate] | – | – | > 256 µg/mL | 78.2 ± 5.8 µM | 31.6 ± 7.4 µM | 30.2 ± 1.9 µM | 33.4 ± 3.8 µM | – | > 256 µg/mL | – | > 256 µg/mL | > 256 µg/mL | – | > 256 µg/mL | – | > 256 µg/mL | 48.7 ± 2.8 µM | > 256 µg/mL | > 256 µg/mL | rather inactive | –
Cc1ccc(C(C)C)c(OC(=O)CCCCCOC(=O)c2cn(C3CC3)c3cc(N4CCN(CCCCCC(=O)Oc5cc(C)ccc5C(C)C)CC4)c(F)cc3c2=O)c1 [Compound 16] | – | – | 128 µg/mL (≈ 155 µM) | 29.5 ± 1.9 µM | 30.5 ± 2.3 µM | 41.8 ± 2.5 µM | 64.9 ± 5.1 µM | – | 128 µg/mL (≈ 155 µM) | – | > 256 µg/mL | > 256 µg/mL | – | 128 µg/mL (≈ 155 µM) | – | 128 µg/mL (≈ 155 µM) | 49.6 ± 7 µM | 256 µg/mL (≈ 311 µM) | 64 µg/mL (≈ 77.7 µM) | rather inactive | –
